For data set [1], the system named is Puccinia recondita f. sp. tritici. Nature of the data set: Puccinia recondita f. sp. tritici / wheat / leaf disc preventative (brown rust). It is filed as in vivo. As to conditions: foliar, vs untreated control. The procedure: (§1) Leaf disks or leaf segments of various plant species are cut from plants grown in a greenhouse. The cut leaf disks or segments are placed in multiwell plates (24-well format) onto water agar. The leaf disks are sprayed with a test solution before (preventative) or after (curative) inoculation. Compounds to be tested are prepared as DMSO solutions (max. 10 mg/mL) which are diluted to the appropriate concentration with 0.025% Tween20 just before spraying. The inoculated leaf disks or segments are incubated under defined conditions (temperature, relative humidity, light, etc.) according to the respective test system. A single evaluation of disease level is carried out 3 to 14 days after inoculation, depending on the pathosystem. Percent disease control relative to the untreated check leaf disks or segments is then calculated.
Wheat leaf segments cv. Kanzler are placed on agar in multiwell plates (24-well format) and sprayed with the formulated test compound diluted in water. The leaf disks are inoculated with a spore suspension of the fungus 1 day after application. The inoculated leaf segments are incubated at 19° C. and 75% rh under a light regime of 12 h light/12 h darkness in a climate cabinet and the activity of a compound is assessed as percent disease control compared to untreated when an appropriate level of disease damage appears in untreated check leaf segments (7-9 days after application).

The test system is the same in data set [2]. The experiment in a line: Puccinia recondita f. sp. tritici / wheat / leaf disc curative (brown rust). It is filed as in vivo. As to conditions: foliar, vs untreated control. The procedure: Leaf disks or leaf segments of various plant species are cut from plants grown in a greenhouse. The cut leaf disks or segments are placed in multiwell plates (24-well format) onto water agar. The leaf disks are sprayed with a test solution before (preventative) or after (curative) inoculation. […] The inoculated leaf disks or segments are incubated under defined conditions (temperature, relative humidity, light, etc.) according to the respective test system. […] Percent disease control relative to the untreated check leaf disks or segments is then calculated. Wheat leaf segments cv. Kanzler are placed on agar in multiwell plates (24-well format). The leaf segments are inoculated with a spore suspension of the fungus. […] The formulated test compound diluted in water is applied 1 day after inoculation.

Data set [3] concerns Phakopsora pachyrhizi. Nature of the data set: Phakopsora pachyrhizi / soybean / leaf disc preventative (Asian soybean rust). It counts as in vivo. Conditions: foliar, 288 h, vs untreated control. The procedure: as §1
Soybean leaf disks are placed on agar in multiwell plates (24-well format) and sprayed with test solutions. After drying, the leaf disks are inoculated with a spore suspension of the fungus. After appropriate incubation the activity of a compound is assessed approx.12 dpi (days after inoculation) as preventive fungicidal activity.

Data set [4] deals with Glomerella lagenarium (Colletotrichum lagenarium). The experiment in a line: Glomerella lagenarium (Colletotrichum lagenarium) liquid culture / cucumber / preventative (anthracnose). It counts as cell-based. As to conditions: Colletotrichum orbiculare, vs untreated control. The procedure: Mycelia fragments or conidia suspensions of a fungus prepared either freshly from liquid cultures of the fungus or from cryogenic storage, are directly mixed into nutrient broth. DMSO solutions of the test compound (max. 10 mg/mL) are diluted with 0.025% Tween20 by a factor of 50 and 10 μl of this solution is pipetted into a microtiter plate (96-well format). The nutrient broth containing the fungal spores/mycelia fragments is then added to give an end concentration of the tested compound. The test plates are incubated in the dark at 24° C. and 96% relative humidity. The inhibition of fungal growth is determined photometrically after 2 to 7 days, depending on the pathosystem, and percent antifungal activity relative to the untreated check is calculated.
Conidia of the fungus from cryogenic storage are directly mixed into nutrient broth (PDB potato dextrose broth). After placing a (DMSO) solution of test compound into a microtiter plate (96-well format), the nutrient broth containing the fungal spores is added.

Data set [5] has as its system Septoria glycines. Nature of the data set: Example B2: mixtures, preventative activity against Septoria glycines (brown spot), liquid culture. It counts as cell-based. As to conditions: for Activity (%) B: component B alone. An excerpt:
(§2) This occurs whenever the action of an active ingredient combination is greater than the sum of the actions of the individual components. The action to be expected E for a given active ingredient combination obeys the so-called COLBY formula and can be calculated as follows (COLBY, S. R. “Calculating synergistic and antagonistic responses of herbicide combination”. Weeds, Vol. 15, pages 20-22; 1967):
(§3) If the action actually observed (O) is greater than the expected action (E), then the action of the combination is super-additive, i.e. there is a synergistic effect. In mathematical terms, synergism corresponds to a positive value for the difference of (O-E). In the case of purely complementary addition of activities (expected activity), said difference (O-E) is zero. A negative value of said difference (O-E) signals a loss of activity compared to the expected activity.
Conidia of the fungus harvested from a fresh culture grown on artificial media, were directly mixed into nutrient broth (PDB potato dextrose broth). A DMSO solution of the test compounds was placed into a microtiter plate (96-well format) and the nutrient broth containing the fungal spores was added to it.
(§4) Fungicidal activity was evaluated on a 100-0 scale (100=no disease growth; 0=well completely covered by mycelium).

Data set [6] has as its system Septoria tritici. The experiment in a line: Example B3: mixtures, preventative activity against Septoria tritici (leaf blotch), liquid culture. It counts as cell-based.
Description: as §2, §3
(§5) Conidia of the fungus from cryogenic storage were directly mixed into nutrient broth (PDB potato dextrose broth). A DMSO solution of the test compounds was placed into a microtiter plate (96-well format) and the nutrient broth containing the fungal spores was added to it.
as §4

In data set [7] the test system is Mycosphaerella arachidis syn. Cercospora arachidicola. The experiment in a line: Example B4: mixtures, preventative activity against Mycosphaerella arachidis syn. Cercospora arachidicola (brown leaf spot of peanut), liquid culture. It is filed as cell-based.
Description: as §2, §3, §5
Cercospora arachidicola (Brown leaf spot of peanut). Fungicidal activity was evaluated on a 100-0 scale (100=no disease growth; 0=well completely covered by mycelium).

Data set [8] deals with Phakopsora pachyrhizi. Nature of the data set: Example B5: preventative activity against Phakopsora pachyrhizi (soybean rust), whole soybean plants sprayed, leaf disks inoculated. It is filed as in vivo. Conditions: applied alone. Here is the method: Whole soybean plants are treated with the recited active ingredients 4 weeks after planting. 1 day after spraying leaf disks are cut from the first trifoliate leaf. Five repetitions at each rate are conducted. The leaf disks are inoculated with Phakopsora pachyrhizi (Asian soybean rust) one day after treatment.
Evaluation of the leaf disks is conducted 11 to 14 days after inoculation and the activity is derived from the relation of the treated vs untreated, infested check (100=no disease, no damage to the leaf, 0=high infestation, leaf damaged heavily). The rates of the active ingredients used are given in the tables as g active ingredient (a.i.)/ha.

Data set [9] concerns Glomerella lagenarium syn. Colletotrichum lagenarium. The experiment in a line: Example B1: mixtures, preventative activity against Glomerella lagenarium syn. Colletotrichum lagenarium, liquid culture. It is filed as cell-based.
Description: as §2, §3, §5, §4

[10] abbreviates: Phakopsora pachyrhizi, foliar, read-out: Observed Activity (%) (% of untreated) against Phakopsora pachyrhizi.
Setting [11] is: Phakopsora pachyrhizi, foliar, 4.5 g/ha, read-out: Observed Activity (%) (% of untreated) against Phakopsora pachyrhizi.

The values that follow come from patent US20230131427A1, “FUNGICIDAL COMPOSITIONS” (SYNGENTA CROP PROTECTION AG, priority 2020, published 2023).

“And” between values parts separate entries of the source, which are not always exact repeats. Identical values can stand only once. Like-named read-outs stand apart in the source and are kept apart here.

For the compound `CCCc1cnn(-c2ccc(C)c(O/C(=C\OC)C(=O)OC)c2)n1` [X.09, methyl (Z)-3-methoxy-2-[2-methyl-5-(4-propyltriazol-2-yl)phenoxy]prop-2-enoate], the pest or weed control at 200 ppm in data set [1] and in data set [2] was ≥ 80% in each case. Moreover, the pest or weed control at 67 ppm in data set [3] was ≥ 80%. Further, the inhibition of growth at 6.7 ppm in data set [4] was ≥ 80%. Further, the inhibition at 0.0025 ppm in data set [5] (Septoria glycines, component A alone, 0.0025 ppm) was found to be 70%; in data set [6] (Zymoseptoria tritici, 72 h, component A alone, 0.0025 ppm) it was 70%; in data set [7] (Mycosphaerella arachidis, component A alone, 0.0025 ppm) it was 50%. Further, the inhibition at 0.005 ppm is 90% in data set [5] (Septoria glycines, component A alone, 0.005 ppm); 90% in data set [6] (Zymoseptoria tritici, 72 h, component A alone, 0.005 ppm); 90% in data set [7] (Mycosphaerella arachidis, component A alone, 0.005 ppm). For the same compound, in [8] (setting [10]), the inhibition at 2.25 g/ha came to 34%. Also, the inhibition at 4.5 g/ha in [8] (Phakopsora pachyrhizi, foliar, 4.5 g/ha, read-out: Observed Activity (% of untreated) against Phakopsora pachyrhizi) came to 94%; in [8] (setting [11]), 95%. In addition, the inhibition at 9 g/ha in data set [8] (Phakopsora pachyrhizi, foliar, 9 g/ha, read-out: Observed Activity (% of untreated) against Phakopsora pachyrhizi) is 97%. Further, in data set [8] (Phakopsora pachyrhizi, foliar, 18 g/ha, read-out: Observed Activity (% of untreated) against Phakopsora pachyrhizi), the inhibition at 18 g/ha was determined as 97%. Moreover, the “Observed Activity (% of untreated) against Phakopsora pachyrhizi” value in [8] (4.5 g/ha) is 93% and 81% and 82%.

In turn, `CCC(C)c1ccn(-c2ccc(C)c(O/C(=C\OC)C(=O)OC)c2)n1` (stereo not shown) [X.02, methyl (Z)-3-methoxy-2-[2-methyl-5-(3-sec-butylpyrazol-1-yl)phenoxy]prop-2-enoate] showed a melting point of 110 to 113 °C. The pest or weed control at 200 ppm in data set [1] was ≥ 80%. In addition, in [3], the pest or weed control at 67 ppm was ≥ 80%. For the same compound, in data set [4], the inhibition of growth at 6.7 ppm was ≥ 80%.

In the case of `Cc1ccc(C(=O)OCc2ccc(Oc3ccccc3)cc2)c(N)n1` [aminopyrifen], the “Activity (%) B” value in [9] (component B alone, 0.1 ppm) came out at 20%; in data set [9] (component B alone, 0.3 ppm), 50%; in data set [5] (0.1 ppm) it was 0%; in [5] (0.1 ppm, 100-0 scale), 0%; in data set [5] (0.3 ppm, 100-0 scale), 20%; in [7] (component B alone, 0.1 ppm), 90%. The “Activity (%) B” value in data set [7] (component B alone, 0.3 ppm) was 100%.

In turn, `CO/C=C(\Oc1cc(-n2ccc(C(F)(F)F)n2)ccc1C)C(=O)OC` [X.08, methyl (Z)-3-methoxy-2-[2-methyl-5-[3-(trifluoromethyl)pyrazol-1-yl]phenoxy]prop-2-enoate] showed a melting point of 154 to 156 °C. Further, the pest or weed control at 200 ppm in [1] is ≥ 80%. Moreover, the pest or weed control at 67 ppm in data set [3] is ≥ 80%. Further, in [4], the inhibition of growth at 6.7 ppm is ≥ 80%. In data set [9] (Colletotrichum orbiculare, component A alone, 0.03 ppm), the inhibition at 0.03 ppm worked out at 0%. In addition, in data set [9] (Colletotrichum orbiculare, component A alone, 0.1 ppm, read-out: Activity (%) A), the inhibition at 0.1 ppm came to 0%. For the same compound, the inhibition at 0.00625 ppm in data set [5] (Septoria glycines, component A alone, 0.00625 ppm) is 0%. In addition, the inhibition at 0.025 ppm in data set [5] (Septoria glycines, component A alone, 0.025 ppm) is 70%. The inhibition at 0.03 ppm in data set [5] (Septoria glycines, component A alone, 0.03 ppm, read-out: Activity (%) A) was 70%. In addition, the inhibition at 0.05 ppm in data set [5] (Septoria glycines, component A alone, 0.05 ppm) amounted to 90%. Further, in data set [5] (Septoria glycines, component A alone, 0.1 ppm, read-out: Activity (%) A), the inhibition at 0.1 ppm was 70%. For the same compound, the inhibition at 0.00625 ppm in [6] (Zymoseptoria tritici, component A alone, 0.00625 ppm, 100-0 scale) is 0%. Also, in [6] (Zymoseptoria tritici, component A alone, 0.025 ppm, 100-0 scale), the inhibition at 0.025 ppm was determined as 70%. Besides, the inhibition at 0.03 ppm in [6] (Zymoseptoria tritici, component A alone, 0.03 ppm, 100-0 scale, read-out: Activity (%) A) was 50%. For the same compound, in data set [6] (Zymoseptoria tritici, component A alone, 100-0 scale, read-out: Activity (%) A), the inhibition at 0.1 ppm came out at 70%. Further, in [6] (component A alone, 0.025 ppm, 100-0 scale), the “Activity (%) A” value came to 90%. The inhibition at 0.00625 ppm in data set [7] (Mycosphaerella arachidis, component A alone, 0.00625 ppm) is 0%. Besides, in data set [7] (Mycosphaerella arachidis, component A alone, 0.025 ppm), the inhibition at 0.025 ppm came to 70%. Also, the inhibition at 0.03 ppm in [7] (Mycosphaerella arachidis, component A alone, 0.03 ppm) was determined as 70%. Further, the inhibition at 2.25 g/ha in data set [8] (setting [10]) came to 1%. For the same compound, the inhibition at 4.5 g/ha in data set [8] (setting [11]) is 10%. The “Observed Activity (% of untreated) against Phakopsora pachyrhizi” value in data set [8] (18 g/ha) is 38% and 77%.

For the compound `N#Cc1c(Cl)c(Cl)c(Cl)c(C#N)c1Cl` [chlorothalonil, reference compound], the inhibition at 0.1 ppm in data set [9] (Colletotrichum orbiculare, component B alone, 0.1 ppm, read-out: Activity (%) B) amounted to 0%; in [6] (Zymoseptoria tritici, 72 h, component B alone, 72 hrs, 100=no disease growth, read-out: Activity (%) B) it was 20%; in data set [7] (Mycosphaerella arachidis, component B alone, 0.1 ppm), 0%. Moreover, the inhibition at 0.3 ppm was 20% in [9] (Colletotrichum orbiculare, component B alone, 0.3 ppm, read-out: Activity (%) B); 70% in data set [6] (Zymoseptoria tritici, 72 h, component B alone, 72 hrs, read-out: Activity (%) B); 70% in data set [6] (Zymoseptoria tritici, component B alone, 100-0 scale, read-out: Activity (%) B); 90% in data set [7] (Mycosphaerella arachidis, component B alone, 0.3 ppm).

On to `CO/C=C(\Oc1cc(-n2ncc(C3CC3)n2)ccc1C)C(=O)OC` [X.11, methyl (Z)-2-[5-(4-cyclopropyltriazol-2-yl)-2-methyl-phenoxy]-3-methoxy-prop-2-enoate], for which the pest or weed control at 200 ppm in data set [1] and in data set [2] was ≥ 80% each time. In [3], the pest or weed control at 67 ppm is ≥ 80%. In addition, the inhibition of growth at 6.7 ppm in data set [4] was ≥ 80%.

Consider `CO/C=C(\Oc1cc(-n2ncc(C(C)C)n2)ccc1C)C(=O)OC` [X.12, methyl (Z)-2-[5-(4-isopropyltriazol-2-yl)-2-methyl-phenoxy]-3-methoxy-prop-2-enoate], for which the pest or weed control at 200 ppm in [1] and in data set [2] was ≥ 80% throughout. Besides, the pest or weed control at 67 ppm in [3] is ≥ 80%. In data set [4], the inhibition of growth at 6.7 ppm was ≥ 80%.
